From ChEMBL document CHEMBL1150834, “Novel halogenated metabolites from the Malaysian Laurencia pannosa” (2001)

Assays:
Assay type in all cases: functional
[1] = tested on: Chromobacterium violaceum; assay: Antibacterial activity against Chromobacterium violaceum after 24 hrs by paper disk method
Vibrio cholerae = assay: Antibacterial activity against Vibrio cholerae after 24 hrs by paper disk method
Proteus mirabilis = assay: Antibacterial activity against Proteus mirabilis after 24 hrs by paper disk method

SMILES | MIC [1] [µg] | MIC (Vibrio cholerae) [µg] | MIC (Proteus mirabilis) [µg]
C#C/C=C\C[C@@H]1O[C@H]2C[C@@H]1O[C@H](CC)[C@@H](Br)C[C@@H]2Cl | 100 | – | –
C[C@@H]1[C@]2(CC[C@@](C)(Cl)[C@H](Br)C2)[C@]2(C)CC[C@@]1(C)O2 [PANNOSANE] | 60 | – | –
C=C1[C@@H](C)CC[C@@](C)(O)[C@@]12CC[C@@](C)(Cl)[C@H](Br)C2 [PANNOSANOL] | 100 | 100 | 60
